Consider 9 molecules from US9771360B2, “Cyano-substituted imidazo[1,2-A]pyridinecarboxamides and their use” (Bayer Pharma Aktiengesellschaft, priority 2014, dated 2017).

This assay concerns the target T1, recombinant guanylate cyclase reporter cell line (Rattus norvegicus, UniProt P19686+P20595).
T1 construct: expressed in transfected cells
T1 sequence (P20595 1-619): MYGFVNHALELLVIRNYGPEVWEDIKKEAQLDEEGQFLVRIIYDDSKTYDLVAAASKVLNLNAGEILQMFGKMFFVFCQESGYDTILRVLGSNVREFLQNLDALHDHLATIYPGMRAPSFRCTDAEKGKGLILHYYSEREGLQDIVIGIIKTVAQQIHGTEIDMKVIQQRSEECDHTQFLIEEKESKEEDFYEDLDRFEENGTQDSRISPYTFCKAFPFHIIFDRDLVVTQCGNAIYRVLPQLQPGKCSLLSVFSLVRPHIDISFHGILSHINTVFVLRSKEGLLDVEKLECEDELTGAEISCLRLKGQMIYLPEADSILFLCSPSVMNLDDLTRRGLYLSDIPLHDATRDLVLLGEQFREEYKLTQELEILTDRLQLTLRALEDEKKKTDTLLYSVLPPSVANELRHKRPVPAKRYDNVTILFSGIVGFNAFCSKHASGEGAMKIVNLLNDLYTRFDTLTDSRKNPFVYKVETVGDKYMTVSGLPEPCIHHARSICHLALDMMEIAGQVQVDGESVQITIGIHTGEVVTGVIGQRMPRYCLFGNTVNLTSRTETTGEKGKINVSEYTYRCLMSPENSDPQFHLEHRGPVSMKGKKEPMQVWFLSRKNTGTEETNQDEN
T1 sequence (P19686 1-690): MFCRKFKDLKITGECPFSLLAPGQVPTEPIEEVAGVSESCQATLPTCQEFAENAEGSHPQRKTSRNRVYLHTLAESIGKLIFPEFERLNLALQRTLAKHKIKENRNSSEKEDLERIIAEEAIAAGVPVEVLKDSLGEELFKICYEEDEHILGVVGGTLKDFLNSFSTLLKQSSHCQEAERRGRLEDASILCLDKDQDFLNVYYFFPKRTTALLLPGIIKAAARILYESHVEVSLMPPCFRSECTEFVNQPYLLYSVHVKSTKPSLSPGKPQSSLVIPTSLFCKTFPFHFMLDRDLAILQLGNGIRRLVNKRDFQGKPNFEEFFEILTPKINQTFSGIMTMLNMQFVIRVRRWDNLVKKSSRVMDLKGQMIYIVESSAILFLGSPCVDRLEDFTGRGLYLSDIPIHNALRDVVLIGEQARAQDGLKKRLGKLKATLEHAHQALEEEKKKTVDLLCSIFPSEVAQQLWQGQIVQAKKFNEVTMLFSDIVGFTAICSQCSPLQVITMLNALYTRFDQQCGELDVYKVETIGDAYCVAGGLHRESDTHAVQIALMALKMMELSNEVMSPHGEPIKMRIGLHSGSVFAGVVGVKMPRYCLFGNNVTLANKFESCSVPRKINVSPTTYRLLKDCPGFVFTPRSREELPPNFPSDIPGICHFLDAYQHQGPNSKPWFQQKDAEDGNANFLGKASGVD
Description: Effect on a recombinant guanylate cyclase reporter cell line (B-2). It is filed as cell-based. Particulars: MEC = minimum effective concentration; in some cases mean values from individual determinations. The procedure:
B-2. Effect on a Recombinant Guanylate Cyclase Reporter Cell Line
The cellular activity of the compounds according to the invention is determined using a recombinant guanylate cyclase reporter cell line, as described in F. Wunder et al., Anal. Biochem. 339, 104-112 (2005).
Representative MEC values (MEC=minimum effective concentration) for the compounds of the invention are shown in the table below (in some cases as mean values from individual determinations): […]
Turning to `Cc1cc(OCc2c(F)ccc(F)c2F)c2nc(C)c(C(=O)NC(C#N)c3ccc(Cl)cc3)n2c1` (racemic) [Example 17, rac-N-[(4-Chlorophenyl)(cyano)methyl]-2,6-dimethyl-8-[(2,3,6-trifluorobenzyl)oxy]imidazo[1,2-a]pyridine-3-carboxamide], the MEC amounted to 0.3 µM.

In the case of `Cc1cc(OCc2c(F)cccc2F)c2nc(C)c(C(=O)NC(C)(C)C#N)n2c1` [Example 3, N-(2-cyanopropan-2-yl)-8-[(2,6-difluorobenzyl)oxy]-2,6-dimethylimidazo[1,2-a]pyridine-3-carboxamide], the MEC was found to be 0.1 µM.

In the case of `Cc1cc(OCCC(C(F)(F)F)C(F)(F)F)c2nc(C)c(C(=O)NC(C#N)c3ccc(Cl)cc3)n2c1` (racemic) [Example 23, rac-N-[(4-chlorophenyl)(cyano)methyl]-2,6-dimethyl-8-[4,4,4-trifluoro-3-(trifluoromethyl)butoxy]imidazo[1,2-a]pyridine-3-carboxamide], the MEC was determined as 3 µM.

In the case of `CCC(CC#N)NC(=O)c1c(C)nc2c(OCc3c(F)cccc3F)cc(C)cn12` (racemic) [Example 13, rac-N-(1-cyanobutan-2-yl)-8-[(2,6-difluorobenzyl)oxy]-2,6-dimethylimidazo[1,2-a]pyridine-3-carboxamide], the MEC is 1 µM.

On to `COCC(C)(C#N)NC(=O)c1c(C)nc2c(OCc3c(F)cccc3F)cc(C)cn12` (racemic) [Example 7, rac-N-(2-cyano-1-methoxypropan-2-yl)-8-[(2,6-difluorobenzyl)oxy]-2,6-dimethylimidazo[1,2-a]pyridine-3-carboxamide], for which the MEC worked out at 0.3 µM. For the molecule `Cc1cc(OCc2c(F)cccc2F)c2nc(C)c(C(=O)NCCC#N)n2c1` [Example 9, N-(2-cyanoethyl)-8-[(2,6-difluorobenzyl)oxy]-2,6-dimethylimidazo[1,2-a]pyridine-3-carboxamide], the MEC worked out at 0.3 µM. `Cc1cc(OCc2c(F)cccc2F)c2nc(C)c(C(=O)Nc3[nH]ncc3C#N)n2c1` [Example 33, N-(4-cyano-1H-pyrazol-5-yl)-8-[(2,6-difluorobenzyl)oxy]-2,6-dimethylimidazo[1,2-a]pyridine-3-carboxamide]: the MEC was 1 µM. Then `Cc1cc(OCC2CC(F)(F)C2)c2nc(C)c(C(=O)NC(C#N)c3ccc(Cl)cc3)n2c1` (racemic) [Example 31, rac-N-[(4-chlorophenyl)(cyano)methyl]-8-[(3,3-difluorocyclobutyl)methoxy]-2,6-dimethylimidazo[1,2-a]pyridine-3-carboxamide], with 10 µM; and `Cc1cc(OCc2c(F)cccc2F)c2nc(C)c(C(=O)Nc3ccccc3CC#N)n2c1` [Example 35, N-[2-(cyanomethyl)phenyl]-8-[(2,6-difluorobenzyl)oxy]-2,6-dimethylimidazo[1,2-a]pyridine-3-carboxamide], with 0.3 µM.
